Patent US20220257595A1, “MACITENTAN FOR USE IN TREATING PORTOPULMONARY HYPERTENSION” (ACTELION PHARMACEUTICALS LTD, priority 2019, published 2022)

What was measured:
patients with PoPH [1] = experiment: Post-hoc: liver transplant waitlist mortality risk (PVR categories); type: in vivo, human
Procedure: Post-Hoc, Exploratory Criteria: • Proportion of patients with NT-proBNP decrease from above 300 ng/L to below this threshold • Odds ratio for improvement to a more favorable liver transplant perioperative risk category • Odds ratio for becoming eligible for the MELD exception • Odds ratio for improvement to a more favorable waitlist mortality risk category
Risk categories related to liver transplant (transplant perioperative risk classification, MELD exception eligibility and waitlist mortality risk) were analyzed descriptively by treatment group using shift tables from baseline to Week 12 with categories as defined in Example 1.
LT perioperative risk classification, MELD exception eligibility, and waitlist mortality analyses were performed after the database lock and SDTMs delivery for the Double-Blind period. Number (%) of patients in following categories were summarized and presented in shift tables. The estimated odds ratio for risk improvement and corresponding 95% confidence intervals were obtained from an exact logistic regression (macitentan vs placebo) with factors for treatment and risk category at baseline.
The outcomes of PoPH patients who were granted MELD exception in the US were analyzed. […] Age, initial MELD score and initial PVR were significant predictors of waitlist mortality, although their accuracy was limited. The results were illustrated by defining 4 groups depending on their PVR and MELD score: high PVR (PVR>450 dyn·sec·cm^−5), low PVR (PVR ≤450 dyn·sec·cm^−5), high MELD (MELD >12) or low MELD (MELD ≤12).

patients with PoPH [2] = experiment: Post-hoc: change in mPAP / PVR by baseline mPAP / PVR category; type: in vivo, human; details: for PVR Change from baseline to Week 12, Median / PVR Week 12, Median / PVR Change from baseline to Week 12, Mean / PVR Week 12, Mean / mPAP Week 12, Median / mPAP Week 12, Mean / mPAP Change from baseline to Week 12, Median / mPAP Change from baseline to Week 12, Mean: 10 mg, Full Analysis Set
Description: This example provides post hoc analyses of the study performed in Example 1. These analyses include: • To assess the effect of macitentan on mean pulmonary arterial pressure (mPAP) related to pre-treatment mPAP. • To assess the effect of macitentan on pulmonary vascular resistance (PVR) related to pre-treatment PVR.
The following exploratory endpoints were defined for the post hoc analyses: • mPAP change related to pre-treatment mPAP. • PVR change related to pre-treatment PVR
All analyses were performed on the full analysis set (FAS, as per randomization, N=85) and no data imputation was performed.
Risk categories are noted in Table 38. To analyze change in mPAP relative to baseline mPAP, the same mPAP categories were used as for transplant perioperative risk classification (Table 38). For the analysis of change in PVR relative to baseline PVR, waitlist mortality risk PVR categories were used (Table 38).

patients with PoPH [3] = experiment: PORTICO safety: hematology (platelets, lymphocytes, neutrophils); type: in vivo
Description: For the evaluation of treatment-emergent safety endpoints in the DB phase, the observation period for each individual subject started at the time of the first administration of macitentan or placebo and ended with the start of OL treatment or 30 days after DB treatment discontinuation (whichever occurred first). The safety variables listed below apply to the DB treatment-emergent period and the macitentan treatment-emergent period. The DB treatment-emergent period was defined as the period from the DB treatment start date up to the EOT-DB+30 days or to the EOT-DB for patients entering OL. The macitentan treatment-emergent period was defined as the period from the first intake of macitentan up to end of macitentan treatment (EOMT)+30 days. EOMT was defined as EOT-DB (for patient who received macitentan only in the DB period) or EOT-OL when applicable. For patients entering OLE, the EOMT is EOT-OL. • Treatment-emergent AEs • Treatment-emergent deaths • Treatment-emergent serious adverse events (SAEs) • AEs leading to premature discontinuation of study treatment • Occurrence of post-baseline LFT (ALT and/or AST) abnormalities, classified as: • ≥3×ULN; • ≥5×ULN; • ≥8×ULN; • ≥3×ULN and <5×ULN; • […] and <8×ULN. • Occurrence of post-baseline ALT and/or AST abnormality 3×ULN and concomitant (i.e., at the same time) total bilirubin ≥2×ULN • Occurrence of post-baseline ALT and/or AST abnormality ≥3×ULN and concomitant (i.e., at the same time) total bilirubin ≥2×ULN and increased as compared to baseline • Occurrence of hemoglobin abnormalities, classified as: • ≤80 g/L, • >80 and ≤100 g/L, • decrease from baseline ≥20 g/L and <50 g/L, • decrease from baseline ≥50 g/L, • <100 g/L and concurrent (i.e., at the same time) decrease from baseline ≥20 g/L. • Other treatment-emergent marked laboratory abnormalities • Change from baseline/macitentan baseline to EOT-DB/EOMT in vital signs • Change from baseline/macitentan baseline to EOT-DB/EOMT in laboratory variables • Change from baseline/macitentan baseline to EOT-DB/EOMT in Child-Pugh classification • Change from baseline/macitentan baseline to EOT-DB/EOMT in MELD score

[4] = PVR at baseline <= 450 dyn · sec/cm^5, n 12
[5] = PVR at baseline > 450 dyn · sec/cm^5, n 27
[6] = mPAP at baseline < 35 mmHg, n 2
[7] = LL at baseline, DB phase, Safety set, 10 mg
[8] = LL at baseline, macitentan DB + OL phase, Macitentan treated set
[9] = Normal at baseline, DB phase, Safety set, 10 mg
[10] = Normal at baseline, macitentan DB + OL phase, Macitentan treated set

CCCNS(=O)(=O)Nc1ncnc(OCCOc2ncc(Br)cn2)c1-c1ccc(Br)cc1 [macitentan, N-[5-(4-Bromophenyl)-6-[2-[(5-bromo-2-pyrimidinyl)oxy]ethoxy]-4-pyrimidinyl]-N′-propylsulfamide]
PVR risk categories (waitlist mortality): Week 12 Category 2 (PVR > 450 dyn · sec/cm^5) (patients with PoPH [1]; Baseline Category 2 (n = 30), Full analysis set, 10 mg, N = 43): 9 n (%)
Odds of changing to the low waitlist mortality risk group, macitentan vs placebo (patients with PoPH [1]; Week 12, exact logistic regression): 10.48 times
Patients moving from waitlist high-risk group (PVR >450 dyn·s·cm^−5) to low-risk group (patients with PoPH [1]; after 12 weeks, FAS no imputation, 18 patients): 41.9%
PVR risk categories: Between-treatment odds ratio for improvement, OR (patients with PoPH [1]; macitentan vs placebo, exact logistic regression, 95% CI 2.381, 66.810, p-value 0.0005): 10.479
Macitentan-treated patients with a decrease in PVR at Week 12 compared to baseline (patients with PoPH [2]; FAS no imputation, 41 patients): 95.3%
Macitentan-treated patients with a decrease in mPAP at Week 12 compared to baseline (patients with PoPH [2]; FAS no imputation, thirty-eight patients): 88.3%
PVR Change from baseline to Week 12, Median (patients with PoPH [2]; [4]): −120.0 dyn · sec/cm^5
PVR Week 12, Median (patients with PoPH [2]; [4]): 248.7 dyn · sec/cm^5
PVR Change from baseline to Week 12, Mean (patients with PoPH [2]; PVR at baseline <= 450 dyn · sec/cm^5, n 12, SD 71.23): −116.4 dyn · sec/cm^5
PVR Week 12, Mean (patients with PoPH [2]; PVR at baseline <= 450 dyn · sec/cm^5, n 12, SD 86.64): 264.6 dyn · sec/cm^5
PVR Change from baseline to Week 12, Median (patients with PoPH [2]; [5]): −244.9 dyn · sec/cm^5
PVR Week 12, Median (patients with PoPH [2]; [5]): 382.5 dyn · sec/cm^5
PVR Change from baseline to Week 12, Mean (patients with PoPH [2]; PVR at baseline > 450 dyn · sec/cm^5, n 27, SD 125.48): −249.4 dyn · sec/cm^5
PVR Week 12, Mean (patients with PoPH [2]; PVR at baseline > 450 dyn · sec/cm^5, n 27, SD 130.62): 400.7 dyn · sec/cm^5
Mean (SD) decrease in mPAP at Week 12 (patients with PoPH [2]; and <45 mmHg): 5.2 (4.22) mmHg
Mean (SD) decrease in PVR at Week 12 (patients with PoPH [2]; baseline PVR <450 dyn·s/cm^5): 116.4 (71.23) dyn·s/cm^5
Mean (SD) decrease in PVR at Week 12 (patients with PoPH [2]; baseline PVR >450 dyn·s/cm^5): 249.4 (125.48) dyn·s/cm^5
Mean (SD) decrease in mPAP at Week 12 (patients with PoPH [2]; baseline mPAP <35 mmHg): 2.0 (5.66) mmHg
Mean (SD) decrease in mPAP at Week 12 (patients with PoPH [2]; baseline mPAP ≥45 mmHg): 7.8 (5.27) mmHg
mPAP Week 12, Median (patients with PoPH [2]; mPAP at baseline 35 to < 45 mmHg, n 13): 36.0 mmHg
mPAP Week 12, Mean (patients with PoPH [2]; mPAP at baseline 35 to < 45 mmHg, n 13, SD 3.84): 35.4 mmHg
mPAP Change from baseline to Week 12, Median (patients with PoPH [2]; [6]): −2.0 mmHg
mPAP Week 12, Median (patients with PoPH [2]; [6]): 29.0 mmHg
mPAP Change from baseline to Week 12, Mean (patients with PoPH [2]; mPAP at baseline < 35 mmHg, n 2, SD 5.66): −2.0 mmHg
mPAP Week 12, Mean (patients with PoPH [2]; mPAP at baseline < 35 mmHg, n 2, SD 8.49): 29.0 mmHg
mPAP Week 12, Median (patients with PoPH [2]; mPAP at baseline >= 45 mmHg, n 24): 43.0 mmHg
mPAP Week 12, Mean (patients with PoPH [2]; mPAP at baseline >= 45 mmHg, n 24, SD 7.04): 44.0 mmHg
mPAP Change from baseline to Week 12, Median (patients with PoPH [2]; mPAP at baseline ≥ 35 to < 45 mmHg, n 13): −5.0 mmHg
mPAP Change from baseline to Week 12, Mean (patients with PoPH [2]; mPAP at baseline ≥ 35 to < 45 mmHg, n 13, SD 4.22): −5.2 mmHg
mPAP Change from baseline to Week 12, Median (patients with PoPH [2]; mPAP at baseline ≥ 45 mmHg, n 24): −7.5 mmHg
mPAP Change from baseline to Week 12, Mean (patients with PoPH [2]; mPAP at baseline ≥ 45 mmHg, n 24, SD 5.27): −7.8 mmHg
Median decrease in lymphocyte count, baseline to Week 12 (patients with PoPH [3]; DB phase, macitentan group): 2.8e+08 L⁻¹
Median decrease in neutrophil count, baseline to Week 12 (patients with PoPH [3]; DB phase, macitentan group): 7.2e+08 L⁻¹
Median decrease in platelets at Week 12 (patients with PoPH [3]; DB phase, macitentan group): 1.1e+10 L⁻¹
Median lymphocyte count at Week 12 (patients with PoPH [3]; DB phase, macitentan group): 1.04e+09 L⁻¹
Median neutrophil count at Week 12 (patients with PoPH [3]; DB phase, macitentan group): 2.25e+09 L⁻¹
Patients with neutrophil decreases from normal at baseline to <1.5×10^9/L (patients with PoPH [3]; DB phase, macitentan group): 6/41
Patients with normal platelets at baseline decreasing to <75×10^9/L (patients with PoPH [3]; DB phase, macitentan group): 2/29
Leukocytes (10^9/L) <2.0 (LLL), worst treatment-emergent marked abnormality (patients with PoPH [3]; [7]): 2/5
Lymphocytes (10^9/L) <0.5 (LLL), worst treatment-emergent marked abnormality (patients with PoPH [3]; [7]): 3/5
Neutrophils (10^9/L) <1.0 (LLL), worst treatment-emergent marked abnormality (patients with PoPH [3]; [7]): 0/2
Leukocytes (10^9/L) <2.0 (LLL), worst treatment-emergent marked abnormality (patients with PoPH [3]; [8]): 3/7
Lymphocytes (10^9/L) <0.5 (LLL), worst treatment-emergent marked abnormality (patients with PoPH [3]; [8]): 6/10
Neutrophils (10^9/L) <1.0 (LLL), worst treatment-emergent marked abnormality (patients with PoPH [3]; [8]): 0/2
Leukocytes (10^9/L) <2.0 (LLL), worst treatment-emergent marked abnormality (patients with PoPH [3]; [9]): 0/38
Leukocytes (10^9/L) <3.0 −≥ 2.0 (LL), worst treatment-emergent marked abnormality (patients with PoPH [3]; [9]): 5/38
Lymphocytes (10^9/L) <0.5 (LLL), worst treatment-emergent marked abnormality (patients with PoPH [3]; [9]): 1/38
Lymphocytes (10^9/L) <0.8 −≥ 0.5 (LL), worst treatment-emergent marked abnormality (patients with PoPH [3]; [9]): 8/38
Neutrophils (10^9/L) <1.0 (LLL), worst treatment-emergent marked abnormality (patients with PoPH [3]; [9]): 2/41
Neutrophils (10^9/L) <1.5 −≥ 1.0 (LL), worst treatment-emergent marked abnormality (patients with PoPH [3]; [9]): 4/41
Leukocytes (10^9/L) <2.0 (LLL), worst treatment-emergent marked abnormality (patients with PoPH [3]; [10]): 4/76
Leukocytes (10^9/L) <3.0 −≥ 2.0 (LL), worst treatment-emergent marked abnormality (patients with PoPH [3]; [10]): 9/76
Lymphocytes (10^9/L) <0.5 (LLL), worst treatment-emergent marked abnormality (patients with PoPH [3]; [10]): 2/72
Lymphocytes (10^9/L) <0.8 −≥ 0.5 (LL), worst treatment-emergent marked abnormality (patients with PoPH [3]; [10]): 19/72
Neutrophils (10^9/L) <1.0 (LLL), worst treatment-emergent marked abnormality (patients with PoPH [3]; [10]): 5/81
Neutrophils (10^9/L) <1.5 −≥ 1.0 (LL), worst treatment-emergent marked abnormality (patients with PoPH [3]; [10]): 12/81
Patients with shifts in lymphocyte counts from normal at baseline to <0.8×10^9/L (patients with PoPH [3]; any time during DB phase, macitentan group): 9/38
Median decrease from baseline in platelet counts (patients with PoPH [3]; combined DB+OL phase): no median decrease
Median decrease in lymphocyte count, baseline to Week 24 (patients with PoPH [3]; macitentan DB+OL phase): 2.4e+08 L⁻¹
Median decrease in neutrophil count, baseline to Week 24 (patients with PoPH [3]; macitentan DB+OL phase): 3.3e+08 L⁻¹
Median lymphocyte count at Week 24 (patients with PoPH [3]; macitentan DB+OL phase): 1.05e+09 L⁻¹
Median neutrophil count at Week 24 (patients with PoPH [3]; macitentan DB+OL phase): 2.4e+09 L⁻¹
Patients with platelet decreases from normal at macitentan baseline to <75×10^9/L (patients with PoPH [3]; macitentan DB+OL phase): 7 patients
Patients with shifts in lymphocyte counts from normal at baseline to <0.8×10^9/L (patients with PoPH [3]; macitentan DB+OL phase): 21/72
Patients with shifts in neutrophil counts from normal at baseline to notably low (patients with PoPH [3]; macitentan DB+OL phase): 17/81
